*1 amine or outer side, *2 acyl side, *3 side chain or, on linkers, in order; H or OH if unused. Where a SMILES comes first, the peptide text is derived from it. Bridges are numbered along the chain shown (N, C = ends). [ ]: non-standard residue; d: D form. ξ: configuration not given here. ξTrp(2-yl) = O=C(C(Cc1c([*:3])[nH]c2ccccc12)N[*:1])[*:2]; X2 = O=C(C(CC(O)(CO)CO)N[*:1])[*:2]; X1 = CC(O)(CO)CC(N[*:1])C(=O)[*:2]; ξAsp(3ξ-OH) = NC(C(=O)O)C(O)C(=O)O; Hyp = O=C(O)[CH]1C[CH](O)CN1

Assay [1] has as its system Apt-12 (DNA, aptamer) GGGAGATGGAGGTCTT
The assay can be described thus: ITC. The settings on record: ultrapure water, 25 °C; 500 μM aptamer titrated into 41.6 μM α-amanitin.

Assay [2] relates to Apt-2 (DNA, aptamer) CCAGGGAGATGGAGGTCTTTTTGGTTGTTGGTGGGGGAATCTTTTGGTATTGAGGAACATG
The assay is described as follows: ITC. The settings on record: ultrapure water, 25 °C; 500 μM aptamer titrated into 41.6 μM α-amanitin.

In assay [3] the test system is Apt (DNA, aptamer) CATGCTTCCCCAGGGAGATGGAGGTCTTTTTGGTTGTTGGTGGGGGAATCTTTTGGTATTGAGGAACATG
The assay can be described thus: ITC. Particulars: ultrapure water, 25 °C; 500 μM aptamer titrated into 41.6 μM α-amanitin.

For assay [4], the system named is Apt-10 (DNA, aptamer) CCCCAGGGAGATGGAGGTCTTTTTGGTTGTTGGTGGGGGAATCTTTTGGTATTGAGGAA
The assay can be described thus: AuNP colorimetric assay (A520). Particulars: Na+ 40 mM (NaCl added after binding); room temperature; aptamer 0-1600 nM titrated into 1 μg/mL α-amanitin; apparent; table unit misprinted Nm.

Assay [5] relates to Apt-12 (DNA, aptamer) GGGAGATGGAGGTCTT
The assay can be described thus: AuNP colorimetric assay (A520). The settings on record: Na+ 40 mM (NaCl added after binding); room temperature; 1 μg/mL α-amanitin; apparent; text b16 prints 132.1 ± 32.99 nM instead.

Assay [6] concerns Apt-8 (DNA, aptamer) CATGCTTCCCCAGGGAGATGGAGGTCTTTTTGGTTGTTGGTGGGGGAATCTTTTGGTA
The assay is described as follows: ITC. The settings on record: ultrapure water, 25 °C; 500 μM aptamer titrated into 41.6 μM α-amanitin.

The test system of assay [7] is Apt-2 (DNA, aptamer) CCAGGGAGATGGAGGTCTTTTTGGTTGTTGGTGGGGGAATCTTTTGGTATTGAGGAACATG
The assay can be described thus: AuNP colorimetric assay (A520). Particulars: Na+ 40 mM (NaCl added after binding); room temperature; aptamer 0-1600 nM titrated into 1 μg/mL α-amanitin; apparent; table unit misprinted Nm.

In assay [8] the test system is Apt (DNA, aptamer) CATGCTTCCCCAGGGAGATGGAGGTCTTTTTGGTTGTTGGTGGGGGAATCTTTTGGTATTGAGGAACATG
The assay can be described thus: AuNP colorimetric assay (A520). Particulars: Na+ 40 mM (NaCl added after binding); room temperature; aptamer 0-1600 nM titrated into 1 μg/mL α-amanitin; apparent; table unit misprinted Nm.

The test system of assay [9] is Apt-11 (DNA, aptamer) CTTCCCCAGGGAGATGGAGGTCTTTTTGGTTGTTGGTGGGGGAAT
The assay can be described thus: AuNP colorimetric assay (A520). Particulars: Na+ 40 mM (NaCl added after binding); room temperature; aptamer 0-1600 nM titrated into 1 μg/mL α-amanitin; apparent; table unit misprinted Nm.

The subject of assay [10] is Apt-8 (DNA, aptamer) CATGCTTCCCCAGGGAGATGGAGGTCTTTTTGGTTGTTGGTGGGGGAATCTTTTGGTA
The assay can be described thus: AuNP colorimetric assay (A520). Particulars: Na+ 40 mM (NaCl added after binding); room temperature; aptamer 0-1600 nM titrated into 1 μg/mL α-amanitin; apparent; table unit misprinted Nm.

For assay [11], the system named is biotin-labeled Apt (DNA, aptamer) CATGCTTCCCCAGGGAGATGGAGGTCTTTTTGGTTGTTGGTGGGGGAATCTTTTGGTATTGAGGAACATG
The assay can be described thus: magnetic bead ELISA, competition (A450). Particulars: 37 °C, biotinylated complementary strand as competitor.

In assay [12] the test system is Apt-10 (DNA, aptamer) CCCCAGGGAGATGGAGGTCTTTTTGGTTGTTGGTGGGGGAATCTTTTGGTATTGAGGAA
The assay is described as follows: ITC. The settings on record: ultrapure water, 25 °C; 500 μM aptamer into 41.6 μM α-amanitin; printed ΔG positive.

Assay [13] relates to Apt-11 (DNA, aptamer) CTTCCCCAGGGAGATGGAGGTCTTTTTGGTTGTTGGTGGGGGAAT
The assay is described as follows: ITC. Particulars: ultrapure water, 25 °C; 500 μM aptamer into 41.6 μM α-amanitin; fit unphysical (N, ΔH).

Assay [14] deals with Apt (DNA, aptamer) CATGCTTCCCCAGGGAGATGGAGGTCTTTTTGGTTGTTGGTGGGGGAATCTTTTGGTATTGAGGAACATG
The assay can be described thus: AuNP colorimetric assay (A620/A520). Particulars: Na+ 40 mM (NaCl added after binding), room temperature, 400 nM aptamer.

[15] abbreviates: highest concentration 500 ng/mL.

For `CC[C@H](C)[C@@H]1NC(=O)CNC(=O)[C@@H]2Cc3c([nH]c4cc(O)ccc34)[S@](=O)C[C@H](NC(=O)CNC1=O)C(=O)N[C@@H](CC(N)=O)C(=O)N1C[C@H](O)C[C@H]1C(=O)N[C@@H]([C@@H](C)[C@@H](O)CO)C(=O)N2`, the Kd in assay [1] was 84.7 µM; in assay [2] it was 46.9 µM; in assay [3], 3.1 µM; in assay [4], 0.1087 ± 0.01823 µM; in [5], 0.1852 ± 0.06087 µM; in assay [6], 11.9 µM. The Kd in [7] is 0.0379 ± 0.006053 µM; in assay [8], 0.0336 ± 0.003928 µM; in [9], 0.1844 ± 0.03708 µM; in [10], 0.1309 ± 0.0311 µM; in [12] it was 68 µM; in [13], 54.6 µM. Also, the binding entry in assay [11] (0.1-6 μg/mL) is recorded as “yes”.
With `C[C@@H]1Cc2c(Cl)cc(C(=O)N[C@@H](Cc3ccccc3)C(=O)O)c(O)c2C(=O)O1`, the binding entry in assay [14] (highest concentration 1 μg/mL) is “no”.
In the case of `CC1NC(=O)C2CC(O)CN2C(=O)C2CSc3[nH]c4ccccc4c3CC(NC1=O)C(=O)NC(CC(C)(O)CO)C(=O)NC(C(C)C)C(=O)NC(C(O)C(=O)O)C(=O)N2` (centres unmarked) (cyclo([ξAsp(3ξ-OH)]C[Hyp]A[ξTrp(2-yl)][X1]V); thioether 2-5; configuration not given here), in assay [11] (setting [15]), the binding entry is “no”.
Take `CCCC[C@@H](C)[C@@H](OC(=O)C[C@@H](CC(=O)O)C(=O)O)[C@H](C[C@@H](C)C[C@H](O)CCCC[C@@H](O)C[C@H](O)[C@H](C)N)OC(=O)C[C@@H](CC(=O)O)C(=O)O`: the binding entry in assay [14] (highest concentration 1 μg/mL) is given as “no”.
As for `CC[C@H](C)[C@@H]1NC(=O)CNC(=O)[C@@H]2Cc3c([nH]c4cc(O)ccc34)[S@](=O)C[C@H](NC(=O)CNC1=O)C(=O)N[C@@H](CC(N)=O)C(=O)N1C[C@H](O)C[C@H]1C(=O)N[C@@H]([C@@H](C)[C@H](C)O)C(=O)N2`, the binding result in assay [11] (setting [15]) was “no”.
Still for that read-out and setting: the entry for `CC1NC(=O)C2CC(O)CN2C(=O)C2CSc3[nH]c4ccccc4c3CC(NC1=O)C(=O)NC(CC(O)(CO)CO)C(=O)NC(C(C)C)C(=O)NC(C(O)C(=O)O)C(=O)N2` (centres unmarked) (cyclo([ξAsp(3ξ-OH)]C[Hyp]A[ξTrp(2-yl)][X2]V); thioether 2-5; configuration not given here) is “no”.
Take `CC[C@H](C)[C@@H]1NC(=O)CNC(=O)[C@@H]2Cc3c([nH]c4cc(O)ccc34)[S@](=O)C[C@H](NC(=O)CNC1=O)C(=O)N[C@@H](CC(=O)O)C(=O)N1C[C@H](O)C[C@H]1C(=O)N[C@@H]([C@@H](C)[C@@H](O)CO)C(=O)N2`: the binding entry in assay [14] (1 μg/mL β-amanitin) and in [11] (500 ng/mL) was “yes” in each case.

The values above are taken from article PMC8779134 (2022).
